For 2 compounds, IC50 results are on record in US6413982B1, “4-substituted quinoline derivatives” (Neurogen Corporation, priority 1999, dated 2002).

SMILES strings stand for the structures.

The assay concerns the target T1, NK-3 receptor (Homo sapiens, UniProt P29371).
T1 construct: expressed in transfected cells; total cellular membranes
T1 sequence (P29371 1-465): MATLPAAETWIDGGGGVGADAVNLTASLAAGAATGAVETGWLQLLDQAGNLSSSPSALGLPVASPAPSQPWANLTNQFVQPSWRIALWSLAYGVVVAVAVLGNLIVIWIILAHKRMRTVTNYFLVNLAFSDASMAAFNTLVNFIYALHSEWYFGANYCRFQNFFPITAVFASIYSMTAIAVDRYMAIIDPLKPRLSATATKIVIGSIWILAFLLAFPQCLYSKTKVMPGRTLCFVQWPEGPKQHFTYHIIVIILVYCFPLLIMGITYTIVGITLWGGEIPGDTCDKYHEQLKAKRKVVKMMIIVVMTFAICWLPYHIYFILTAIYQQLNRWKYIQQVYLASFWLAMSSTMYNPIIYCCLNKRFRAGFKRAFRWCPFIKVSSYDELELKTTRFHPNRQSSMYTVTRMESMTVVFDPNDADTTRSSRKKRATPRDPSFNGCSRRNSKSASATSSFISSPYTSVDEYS
The experiment in a line: Assay for NK-3 receptor binding activity. The note with it: displacement of 125I-methylPhe7-neurokinin B, membranes of CHO cells expressing cloned human NK-3 receptor, 2 hours at 4° C. The procedure:
The following assay is a standard assay for NK-3 receptor binding activity. Assays are performed as described in Krause et al (Proc. Natl. Acad. Sci. USA 94: 310-315, 1997). The NK-3 receptor complementary DNA is cloned from human hypothalamic RNA using standard procedures. The receptor cDNA is inserted into the expression vector pM^2 to transfect the mammalian Chinese hamster ovary cell line, and a stably expressing clonal cell line is isolated, characterized and used for the current experiments. Cells are grown in minimal essential medium alpha containing 10% fetal bovine serum and 250 μg/ml G418. Cells are liberated from cell culture plates with No-zyme (PBS base, JRH Biosciences), and harvested by low speed centrifugation. […]
Receptor binding assays contain a total volume of 200 μl containing 50 μg membrane protein, 0.05-0.15 nM 125I-methylPhe7-neurokinin B, drug or blocker in TBS containing 1.0 mg/ml bovine serum albumen, 0.2 mg/ml bacitracin, 20 μg/ml leupeptin and 20 μg/ml chymostatin. […] After filtration of the incubation mixture, filters are rinsed 4 times with ice-cold TBS containing 0.01% sodium dodecyl sulfate and radioactivity is quantitated in a β-plate scintillation counter. […] Data are collected in duplicate determinations, averaged, and the percent inhibition of total specific binding is calculated. […]

`CCC1(c2ccccc2)CN=C(c2c(OC)c(-c3ccccc3)nc3ccccc23)N1` (centres unmarked) [Example 1, 5-Ethyl-5-phenyl-2-(3-methoxy-2-phenylquinolin-4-yl)-imidazoline] showed an IC50 of 19 nM.
To `CCC1(c2ccccc2)CN=C(c2c(C)c(-c3ccccc3)nc3ccccc23)N1` (centres unmarked) [Example 2] belongs 0.3 nM.
